The values below come from patent US10738041B2, “Ferroportin inhibitors” (Vifor (International) AG, priority 2015, dated 2020).

Marks after values point to notes of the source that are not given here.

In experiment [1] the test system is b2m−/− mice. Put plainly: Correction of hyperferremia in beta2-microglobulin deficient mice. Type of experiment: in vivo, mouse. As to conditions: blood collected 1 or 3 hours after administration (time not given). An excerpt: Mutations in genes involved in sensing the systemic iron stores, such as hepcidin (Hamp1), hemochromatosis protein (HFE), hemojuvelin (HJV) and transferrin receptor 2 (TFR2) cause iron overload in mice and men. HFE, HJV and TFR2 molecules on hepatocytes are necessary for signaling of appropriate hepcidin production and their deficiency results in pathophysiologically low hepcidin levels and excessive iron absorption. HFE mutations is the most frequent cause of hereditary hemochromatosis (HH) in Caucasian adults. HFE is a MHC class I-like membrane molecule that associates with beta 2-microglobulin and participates in hepcidin transcriptional regulation through the bone morphogenetic protein receptor (BMPR) pathway. HFE−/− mice have decreased hepcidin levels, develop hyperferremia and high hepatic iron levels, which makes them a suitable animal model for studying iron overload in humans (Zhou, 1998). Mice deficient in beta 2-microglobulin (b2m−/−) develop hyperferremia and hemochromatosis similarly to HFE−/− animals, as beta 2-microglobulin is necessary for the cell-surface expression and function of HFE (Rothenberg and Voland, 1996). Due to the unavailability of HFE−/− mice, b2m−/− mice were used as a model of iron overload.
Female and male homozygous b2m−/− mice were supplied from Jackson Laboratories (B6.129P2-B2mtm1Unc/J, Stock Number: 002087) at age of 6 to 7 weeks and fed standard diet (Harlan Provimi Kliba 3436) ad libitum. Age and gender matched WT C57BL/6 mice were supplied by Charles River. To study the acute effects of ferroportin (Fpn) inhibitors in iron overload b2m−/− mice were treated with compounds or the corresponding amount of vehicle at a volume of 10 ml/kg body weight. […] WT controls received only vehicle. Three hours later, mice were pre-terminally anesthetized in isoflurane chambers and blood was collected by retro-orbital bleeding. Mice were sacrificed by cervical dislocation and spleens, livers and duodena were harvested and used for biomarker analysis. All experiments have been performed in compliance with license approved by the responsible veterinarian authorities. Serum was isolated by centrifugation of blood into gel-containing microtainers (BD Biosciences) and serum iron was determined by the MULTIGENT Iron assay (Abbott Diagnostics, Cat. 6K95). Four to nine mice per group were used and one-way ANOVA with Bonferroni's multiple comparison test was applied to analyze the statistical differences between the experimental groups.

For another experiment, the target named is T1, ferroportin (Homo sapiens, UniProt Q9NP59).
T1 construct: host or cells: T47D cells
T1 sequence (Q9NP59 1-571): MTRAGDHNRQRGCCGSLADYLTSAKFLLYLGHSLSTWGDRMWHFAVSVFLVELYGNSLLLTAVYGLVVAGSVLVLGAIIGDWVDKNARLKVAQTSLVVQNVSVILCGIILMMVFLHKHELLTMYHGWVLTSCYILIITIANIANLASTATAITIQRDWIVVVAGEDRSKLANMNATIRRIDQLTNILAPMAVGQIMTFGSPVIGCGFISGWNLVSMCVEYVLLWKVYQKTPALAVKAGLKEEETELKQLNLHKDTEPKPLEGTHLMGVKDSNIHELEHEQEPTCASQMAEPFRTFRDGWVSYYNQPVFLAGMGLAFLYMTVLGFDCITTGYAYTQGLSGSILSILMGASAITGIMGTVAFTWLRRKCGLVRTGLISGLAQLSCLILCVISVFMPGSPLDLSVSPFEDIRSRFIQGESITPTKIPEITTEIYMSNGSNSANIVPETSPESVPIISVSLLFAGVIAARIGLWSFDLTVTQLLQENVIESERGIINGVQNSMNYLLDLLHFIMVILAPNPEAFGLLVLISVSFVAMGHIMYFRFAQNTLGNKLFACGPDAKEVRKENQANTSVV
Put plainly: Inhibition of Iron Efflux by Ferroportin Inhibitors. The format is cell-based. As to conditions: T47D cells, 58Fe in supernatant, 20 h; representative (FIG. 2). How it is done: The activity of hepcidin and ferroportin inhibitor compounds regarding their ability to block iron export via ferroportin was tested on T47D cells (ECACC, Cat. 85102201) as described below.
Cells were plated in 24-well plates (Greiner, Cat. 662160) containing 350,000 cells/well and incubated overnight with 100 μM ^58Fe (^58Fe(II)-Sulfate, Vifor Pharma Batch No. ROR 3085) in 500 μM L-Ascorbic Acid (Sigma Aldrich, Cat. 795437) containing growth medium. […] A serial dilution of hepdicin (Bachem) or ferroportin inhibitors (4 μM-0.0064 μM, 5 fold dilution) was added in a total volume of 0.6 ml per well. Cells were incubated at 37° C. with 5% CO2 for 20 h. Supernatants were collected and ^58Fe was measured using inductively coupled plasma mass spectrometry (ICP-MS, Thermo Scientific, Element 2). Pellets were harvested for protein concentration measurements. Results are plotted as ng^58Fe in supernatant per mg protein in cell lysates.

The test system of another experiment is naïve WT C57BL/6 mice. The experiment in a line: Hypoferremia in naïve mice. The format is in vivo, mouse. How it is done:
Female C57BL/6 mice (Janvier, France) at age of 9 weeks were fed a standard diet (Harlan Provimi Kliba 3436) and treated per os (p.o.) with compounds or the corresponding amount of vehicle at a volume of 10 ml/kg body weight. Fpn inhibitors were formulated in 0.5% methylcellulose/water or 20% cremophor EL/water and dosed p.o. in mice at 10, 30 or 100 mg/kg body weight. Three hours later, mice were pre terminally anesthetized in isoflurane chambers and blood was collected by retro-orbital bleeding. Mice were sacrificed by cervical dislocation and spleens, livers and duodena were harvested and used for biomarker analysis. All experiments have been conducted in compliance with the license approved by the responsible veterinarian authorities. Serum was isolated by centrifugation of blood into gel-containing microtainers and serum iron was determined by the MULTIGENT Iron assay (Abbott Diagnostics, 6K95). Eight mice per group were used and one-way ANOVA with Bonferroni's multiple comparison test was performed to analyze the statistical differences between the experimental groups.

In experiment [2] the test system is b2m−/− mice. The experiment in a line: Prevention of iron overload in beta2-microglobulin deficient mice. The format is in vivo, mouse. The following applies: 14 day treatment; for 58Fe Liver Iron Reduction (%): ICP-MS; for Total Liver Iron Reduction (%) / Total Spleen Iron Increase (%): ICP-OES. Here is the method: The efficacy of the Fpn inhibitors to prevent liver iron accumulation in b2m−/− mice was investigated. Three weeks old b2−/− mice fed LID were dosed with either Fpn inhibitor or vehicle (methylcellulose; 10 ml/kg). Mice had access to drinking water supplemented with 1 mM^58Fe(II)-sulfate and 10 mM ascorbic acid. Dosing of Fpn inhibitor or vehicle followed by exposure to iron-containing water was repeated for 14 days. Mice were euthanized and the liver and spleen iron contents were analyzed by ICP-OES (all iron isotopes) and liver tissue was also analyzed for ^58Fe concentration (ICP-MS).

Setting [3] is: injection of synthetic hepcidin in WT naïve mice (Rivera, 2005; FIG. 3A).

As to `O=C(NCc1ncccc1F)c1coc(CCNCCc2nc3ccccc3[nH]2)n1` [Example 127], the “Serum Iron Reduction (%)” value in the experiment on b2m−/− mice [1] (female, Dose 20 mg/kg oral) is recorded as 47*** %; in the experiment on b2m−/− mice [1] (female, Dose 60 mg/kg oral), 74*** %; in the experiment on b2m−/− mice [1] (male, Dose 20 mg/kg oral) it was 21%; in the experiment with b2m−/− mice [1] (male, Dose 60 mg/kg oral) it was 83** %. Moreover, the midpoint of inhibition on ferroportin, the IC50, lay at 80 nM. For the same compound, in the experiment on naïve WT C57BL/6 mice (Mus musculus, po, 3 h, Dose 10 mg/kg p.o., naïve WT C57BL/6 mice, relative to vehicle, read-out: Serum Iron Reduction at 3 h (%)), the inhibition in vivo at 10 mg/kg is 17%. For the same compound, the inhibition in vivo at 30 mg/kg with naïve WT C57BL/6 mice (Mus musculus, po, 3 h, Dose 30 mg/kg p.o., naïve WT C57BL/6 mice, relative to vehicle, read-out: Serum Iron Reduction at 3 h (%)) is 47%. Also, the inhibition in vivo at 100 mg/kg in the experiment with naïve WT C57BL/6 mice (Mus musculus, po, 3 h, Dose 100 mg/kg p.o., naïve WT C57BL/6 mice, relative to vehicle, read-out: Serum Iron Reduction at 3 h (%)) came to 54%. Further, the “58Fe Liver Iron Reduction (%)” value in the experiment on b2m−/− mice [2] (female, 20 mg/kg p.o. b.i.d.) is 34%; in the experiment on b2m−/− mice [2] (female, 60 mg/kg p.o. b.i.d.) it was 63*** %; with b2m−/− mice [2] (male, 20 mg/kg p.o. b.i.d.), 71*** %; in the experiment on b2m−/− mice [2] (male, 60 mg/kg p.o. b.i.d.) it was 73*** %. In addition, the “Total Liver Iron Reduction (%)” value is −38% with b2m−/− mice [2] (female, 20 mg/kg p.o. b.i.d.); 2% with b2m−/− mice [2] (female, 60 mg/kg p.o. b.i.d.); 50** % in the experiment on b2m−/− mice [2] (male, 20 mg/kg p.o. b.i.d.); 65*** % with b2m−/− mice [2] (male, 60 mg/kg p.o. b.i.d.). Moreover, the “Total Spleen Iron Increase (%)” value is given as 71* % in the experiment with b2m−/− mice [2] (female, 20 mg/kg p.o. b.i.d.); 51% with b2m−/− mice [2] (female, 60 mg/kg p.o. b.i.d.); −7% in the experiment with b2m−/− mice [2] (male, 20 mg/kg p.o. b.i.d.); −16% in the experiment with b2m−/− mice [2] (male, 60 mg/kg p.o. b.i.d.).

Consider `CC[C@H](C)[C@@H]1NC(=O)[C@@H](NC(=O)[C@@H](NC(=O)[C@@H]2CCCN2C(=O)[C@H](Cc2ccccc2)NC(=O)[C@H](Cc2c[nH]cn2)NC(=O)[C@@H](NC(=O)[C@@H](N)CC(=O)O)[C@@H](C)O)[C@@H](C)CC)CSSC[C@@H](C(=O)N[C@@H](CCCCN)C(=O)N[C@H](C(=O)O)[C@@H](C)O)NC(=O)[C@@H]2CSSC[C@@H]3NC(=O)[C@@H]4CSSC[C@H](NC(=O)[C@H](Cc5ccccc5)NC1=O)C(=O)N[C@@H](CSSC[C@H](NC(=O)[C@H](CCCCN)NC(=O)[C@H](CO)NC(=O)[C@H](CCCNC(=N)N)NC(=O)[C@H](Cc1c[nH]cn1)NC3=O)C(=O)NCC(=O)N[C@@H](CCSC)C(=O)N2)C(=O)NCC(=O)N4` [hepcidin, reference compound], for which the IC50 (usually the concentration that gives 50% inhibition) against ferroportin was determined as 86 nM. Moreover, in the experiment on naïve WT C57BL/6 mice (setting [3]), the “reduction of serum iron levels from the vehicle control” value is on record as 40-50% and the “time of maximal effect on serum iron post treatment” value lay in the range of 3 to 4 h.
